Experiments:
[1] = target: T1, nuclear binding of tritiated dexamethazone (glucocorticoid receptors) (Mus musculus, UniProt P06537); experiment: Displacement of the nuclear binding of tritiated dexamethazone in isolated liver, brain, thymus and spleen cells; design: species or system C57BL/6 mouse
T1 construct: The liver, brain, spleen and thymus are excised and the cells of each organ are recovered; from tissue; host or cells: isolated cells of liver, brain, spleen and thymus of metyrapone-treated C57BL/6 mice
T1 sequence (P06537 1-792): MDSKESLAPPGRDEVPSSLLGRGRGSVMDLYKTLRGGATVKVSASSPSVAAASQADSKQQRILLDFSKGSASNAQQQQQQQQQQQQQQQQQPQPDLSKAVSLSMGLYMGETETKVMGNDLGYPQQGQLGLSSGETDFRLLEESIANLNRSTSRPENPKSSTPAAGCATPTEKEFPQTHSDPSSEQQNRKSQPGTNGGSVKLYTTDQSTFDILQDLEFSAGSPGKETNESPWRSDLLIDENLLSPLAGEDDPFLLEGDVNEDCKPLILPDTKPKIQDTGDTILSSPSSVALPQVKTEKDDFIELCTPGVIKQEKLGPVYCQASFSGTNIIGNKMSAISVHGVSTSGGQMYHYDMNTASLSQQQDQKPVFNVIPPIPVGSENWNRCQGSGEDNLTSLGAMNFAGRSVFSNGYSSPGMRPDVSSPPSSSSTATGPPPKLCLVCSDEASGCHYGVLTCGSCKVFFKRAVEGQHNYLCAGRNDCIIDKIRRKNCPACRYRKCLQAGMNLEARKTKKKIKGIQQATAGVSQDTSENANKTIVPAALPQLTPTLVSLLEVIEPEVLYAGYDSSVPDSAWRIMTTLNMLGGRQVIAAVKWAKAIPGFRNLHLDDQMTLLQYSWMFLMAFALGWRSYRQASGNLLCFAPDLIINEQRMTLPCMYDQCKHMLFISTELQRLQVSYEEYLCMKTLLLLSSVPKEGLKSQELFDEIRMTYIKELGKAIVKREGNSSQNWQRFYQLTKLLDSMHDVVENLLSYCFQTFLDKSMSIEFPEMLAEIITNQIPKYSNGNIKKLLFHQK
Protocol: The isolated hepatocytes are incubated for 1 hour at room temperature with increasing concentrations (2-80 nM) of ^3 H-dexamethazone (DEX*). […] The hepatocyte nuclei are then isolated and purified and the radioactivity corresponding to the DEX* still bound is measured and expressed in cpm/10 ug of DNA. The area under the curve DEX* corresponds to zero displacement of the radioactivity. The area under the curve DEX*/DEX which corresponds to the displacement of radioactivity by the same molecule is taken arbitrarily as 100. The areas under the curve obtained with the other steroids makes it possible to calculate by interpolation between the areas zero and 100 their displacement coefficients for the nuclear binding of DEX*.
The mice are anesthetized with ether and bled, then perfused intracardially with physiological serum containing collagenase B (0.03 g/100 ml) for 10 minutes. […] The quantities of cells obtained are estimated on the base of the measurement of the DNA contained in the preparations.
The nuclei are recovered and their radioactive content measured as described by the authors cited above.
The area under the curve of tritiated dexamethazone alone is measured and taken as zero. […] The displacement coefficients found for each of the other steroids are calculated by interpolation on this scale, each result being the mean of a triplicate determination.

[2] = system: cytosolic or nuclear receptors specific for 7-alpha-hydroxy-DHEA; experiment: Search for cytosolic or nuclear receptors specific for 7-alpha-hydroxy-DHEA (studies not reported); assay type: binding; details: studies not reported here
anti-lysozyme IgG = experiment: Immunoenzymatic measurement of anti-lysozyme IgG in serum of mice immunized against lysozyme; assay type: in vivo, C57BL/6 mice; details: for Optical densities +/- SD, anti-lysozyme IgG, 1/180 serial dilution: serum 1/180; for Optical densities +/- SD, anti-lysozyme IgG, 1/180 serial dilution / Optical densities +/- SD, anti-lysozyme IgG, 1/540 serial dilution / Optical densities +/- SD, anti-lysozyme IgG, first serial dilution: s.c., mean of 5 mice; for Optical densities +/- SD, anti-lysozyme IgG, 1/180 serial dilution / Optical densities +/- SD, anti-lysozyme IgG, 1/540 serial dilution: doses and timing as E1; for Optical densities +/- SD, anti-lysozyme IgG, 1/540 serial dilution: serum 1/540; for Optical densities +/- SD, anti-lysozyme IgG, first serial dilution: serum dilution not given, PREG 0,5 g/kg, DHEA 1,0 g/kg, ADIOL 125 mg/kg 1 hour before lysozyme, 7-hydroxy-PREG and 7-hydroxy-DHEA 6,25 mg/kg, 7β-hydroxy-DHEA 50,0 mg/kg, 7- and 7β-hydroxy-ADIOL 25,0 mg/kg with lysozyme; for Effect on serum anti-lysozyme IgG (in words): steroid administered s.c. simultaneously with lysozyme; for Effect on serum concentrations of anti-lysozyme IgG (in words): steroid administered s.c. at least one hour prior to the injection of lysozyme
Protocol: The immunity effector effect was tested by subcutaneous injection concomitantly with that of an antigen and the 7-alpha- or 7-beta-hydroxylated derivative into C57BL/6 mice according to a standard immunization protocol (Methods in Enzymology (1980), vol. 70).
The effect of the compound as cellular immunity effector is measured by the quantity of circulating IgG directed against the antigen 21 days after the injection and after a booster injection 14 days layer.
Thirty five groups of five 6-weeks old C57BL/6 mice are given a subcutaneous injection of 200 ug of hen egg white lysozyme on days one and fourteen of the immunization protocol. Solutions of DHEA (Sigma D-4500) in dimethyl sulfoxide (DMSO) are injected in the same manner at variable times before the first injection of lysozyme. Amounts ranging from 0.25 and 2 g/kg are used. Ten other groups of 5 mice are given a subcutaneous injection of 6.25 to 50 mg/kg of 7-alpha-hydroxy-DHEA or 7-beta-hydroxy-DHEA dissolved in DMSO at the same time as the first lysozyme injection. Two groups receive only DMSO with lysozyme (controls). The blanks correspond to one group of 5 mice and are not given an injection.
Three weeks after the first injections the animals, then aged 9 weeks, are decapitated. The blood of each animal is collected and the presence of anti-lysozyme G immunoglobulins (IgG) is measured in serial dilutions of the sera by an immunoenzymatic titration using goat anti-mouse (Fc) IgG immunoglobulin labelled with peroxidase.
A group of 5 mice is given the subcutaneous injection of 125 mg/kg of 5-androstene-3-beta, 17-beta-diol (ADIOL) one hour prior to the first injection of lysozyme, and two groups of 5 mice are treated with 25 mg/kg of 7-alpha-hydroxy-ADIOL or 7-beta-hydroxy-ADIOL at the time of the first lysozyme injection.
DHEA or PREG or ADIOL is injected subcutaneously 1 hour before the first lysozyme injection. The 7-hydroxylated derivatives are administered simultaneously with the lysozyme injection. The immunoenzymatic measurement of the anti-lysozyme IgGs in the serial dilutions of the sera of each animal makes use of goat anti-mouse (Fc) IgG immunoglobulin, labelled with peroxidase in 96-well plates treated with lysozyme. The mean value of the optical densities measured in each group of 5 mice is calculated as well as the standard deviation (SD).

antiviral response = details: 20 mg/kg to 320 mg/kg s.c. or 0.4% by weight of the diet; cited from earlier work
AIDS = details: 400 to 2500 mg/day; cited from earlier work
[3] = cited from earlier work
[4] = system: human viruses Edwards CVB4 or HSV2; details: s.c., of the order of 1 g/kg 4 hours prior to viral infection; also oral 0.4% in the diet for 16 weeks; cited from earlier work

Compound	Displacement of tritiated dexamethazone from nuclear binding / anti-glucocorticoid action (in words) ([1]; 100-fold excess of steroid)	Displacement coefficient for nuclear binding of tritiated dexamethazone, Brain ([1]; brain cells, 100-fold excess of steroid, no competitor = zero, unlabelled dexamethazone = 100, mean of triplicate)	Displacement coefficient for nuclear binding of tritiated dexamethazone, Liver ([1]; liver cells, 100-fold excess of steroid over 2-80 nM 3H-dexamethazone, no competitor = zero, unlabelled dexamethazone = 100, mean of triplicate, 60 min)	Displacement coefficient for nuclear binding of tritiated dexamethazone, Spleen ([1]; spleen cells, 100-fold excess of steroid, no competitor = zero, unlabelled dexamethazone = 100, mean of triplicate)	Displacement coefficient for nuclear binding of tritiated dexamethazone, Thymus ([1]; thymus cells, 100-fold excess of steroid, no competitor = zero, unlabelled dexamethazone = 100, mean of triplicate)	Existence of specific cytosolic or nuclear receptors [2]	Optical densities +/- SD, anti-lysozyme IgG, 1/180 serial dilution (anti-lysozyme IgG)	Optical densities +/- SD, anti-lysozyme IgG, 1/540 serial dilution (anti-lysozyme IgG)	Optical densities +/- SD, anti-lysozyme IgG, first serial dilution (anti-lysozyme IgG)	Effect on serum anti-lysozyme IgG (in words) (anti-lysozyme IgG; listed as 7-alpha-OH-DHEA)	Effect on serum anti-lysozyme IgG (in words) (anti-lysozyme IgG; listed as 7-alpha-hydroxy-DHEA)	Effect on serum concentrations of anti-lysozyme IgG (in words) (anti-lysozyme IgG)	Antiviral response (antiviral response)	Effect on patients suffering from AIDS (AIDS)	Solubility in aqueous solutions [3]	Survival of infected mice [4]
C[C@]12CC[C@H](O)CC1=C[C@@H](O)[C@@H]1[C@@H]2CC[C@]2(C)C(=O)CC[C@@H]12 [7-hydroxy-DHEA, 3-beta, 7-alpha-dihydroxy-androst-5-en-17-one]	more effective that the 7-beta epimer	49	95	91	85	do not exist	0,74 ± 0,21	0,43 ± 0,12	1,21 ± 0,37	particularly marked effect of the low doses	much more active than its 7-beta epimer	–	–	–	–	–
C[C@]12CC[C@H]3[C@@H](CC=C4C[C@@H](O)CC[C@@]43C)[C@@H]1CC[C@@H]2O [ADIOL, 5-androstene-3-beta, 17-beta-diol, reference compound]	–	–	–	–	–	–	0,37 ± 0,06	0,22 ± 0,03	0,26 ± 0,09	–	–	increase the serum concentrations of anti-lysozyme IgG	enhanced antiviral response	–	–	–
C[C@]12CC[C@H](O)CC1=CC[C@@H]1[C@@H]2CC[C@]2(C)C(=O)CC[C@@H]12 [DHEA, 3-beta-hydroxy-5-androsten-17-one, reference compound]	–	–	–	–	–	–	0,26 ± 0,04	0,14 ± 0,02	0,40 ± 0,06	–	–	increase the serum concentrations of anti-lysozyme IgG	–	positive effect	low solubility	enables the survival of mice infected by the human viruses Edwards CVB4 or HSV2 to be increased
